In patent US12492210B2, “Tricyclic compounds and their use” (HUTCHISON MEDIPHARMA LIMITED, priority 2019, dated 2025):

Key:
[1] = biological target: T1, MAPK1(ERK2) enzyme (Homo sapiens, UniProt P28482); experiment: Z-Lyte Kinase Assay of ERK2; type: biochemical; settings: read-out: Example 18 IC50
T1 construct: purchased Invitrogen PV3313
Summary of the method: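 FRET-based Z-LYTE assay using ERK2 kinase with Ser/Thr3 peptide; compound tested at 0.00046–1 μM final in 2% DMSO. Kinase reaction ran 1 h at 25-30° C, followed by 1 h development. The coumarin/fluorescein emission ratio (445/520 nm) gave % phosphorylation, and IC50 was fitted from inhibition relative to uninhibited control.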

[2] = test system: p-RSK (Thr359) in colo205 cells; experiment: p-RSK (Thr359) Acumen Assay in Colo205; type: cell-based; settings: Homo sapiens, COLO 205, 1 hour compound incubation, read-out: Example 19 IC50
Summary of the method: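 Colo205 cells (4000/well, seeded overnight in 10% FBS) were exposed 1 hour at 37° C to compound added from a 3–0.001 μM dilution series in 5% DMSO. Cells were then fixed, permeabilised and immunostained for p-RSK Thr359, with PI counterstain. Acumen cytometry gave the percentage of positive cells, normalised to untreated wells and 3 uM GDC0994 wells, for the IC50 fit.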

T1 sequence (P28482 whole entry): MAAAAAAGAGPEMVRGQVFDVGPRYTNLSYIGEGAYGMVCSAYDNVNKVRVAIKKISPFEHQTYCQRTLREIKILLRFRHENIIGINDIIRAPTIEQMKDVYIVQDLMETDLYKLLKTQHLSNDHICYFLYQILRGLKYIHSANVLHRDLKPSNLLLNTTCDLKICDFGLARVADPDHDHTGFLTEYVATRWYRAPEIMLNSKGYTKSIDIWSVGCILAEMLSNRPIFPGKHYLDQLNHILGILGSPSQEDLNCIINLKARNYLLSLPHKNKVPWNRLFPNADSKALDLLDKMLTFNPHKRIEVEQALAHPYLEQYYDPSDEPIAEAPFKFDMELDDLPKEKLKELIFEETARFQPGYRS

| IC50 [1] [nM] | IC50 [2] [nM] | Compound |
| --- | --- | --- |
| > 10 | > 100 | Cc1cnc(Nc2ccnn2C)cc1-c1cc2n(c1)C[C@H](CF)n1c-2nnc1C(F)(F)Oc1ccccc1F [Compound 170] |
| ≤ 5 | ≤ 100 | Cc1cnc(Nc2ccnn2C)cc1-c1cc2n(c1)CC1(CC1)Cn1c-2nnc1C1(C(F)(F)F)CCC1 [Compound 258] |
| ≤ 5 | ≤ 100 | Cc1cnc(Nc2c3c(nn2C)CCC3)nc1-c1cc2n(c1)C[C@H](CF)n1c(Cc3ccccc3F)nnc1-2 [Compound 150] |
| ≤ 5 | ≤ 100 | C[C@H]1Cn2cc(-c3cc(Nc4ccnn4C)ncc3Cl)cc2-c2nnc(C(F)(F)n3cc(F)cn3)n21 [Compound 108] |
| ≤ 5 | ≤ 100 | Cc1cnc(Nc2ccnn2C)cc1-c1cc2n(c1)CC1(CC1)Cn1c-2nnc1C(F)(F)C(F)F [Compound 66] |
| 5 to 10 | ≤ 100 | Cn1nccc1Nc1cc(-c2cc3n(c2)C[C@H](Cc2ccccc2)n2c(CCC(F)(F)F)nnc2-3)c(Cl)cn1 [Compound 203] |

Second part, the molecule before the results:

| Compound | IC50 [1] [nM] | IC50 [2] [nM] |
| --- | --- | --- |
| Cc1cnc(Nc2ccnn2C)cc1-c1cc2n(c1)C[C@H](CF)n1c-2nnc1C(F)(F)c1sccc1Cl [Compound 195] | ≤ 5 | ≤ 100 |
| C[C@@H](CO)Nc1cc(-c2cc3n(c2)CCCn2c-3nnc2C2(C(F)(F)F)CCC2)c(Cl)cn1 [Compound 229, (S)-2-((5-chloro-4-(3-(1-(trifluoromethyl)cyclobutyl)-6,7-dihydro-5H-pyrrolo[1,2-a][1,2,4]triazolo[3,4-c][1,4]diazepin-10-yl)pyridin-2-yl)amino)propan-1-ol] | ≤ 5 | ≤ 100 |
| Cn1nccc1Nc1cc(-c2cc3n(c2)CC(F)(F)Cn2c(Cn4cc(F)cn4)nnc2-3)c(Cl)cn1 [Compound 106] | ≤ 5 | ≤ 100 |
| Cn1nccc1Nc1cc(-c2cc3n(c2)C[C@H](CF)n2c(Cc4ccccc4F)nnc2-3)c(Cl)cn1 [Compound 92] | 5 to 10 | ≤ 100 |
| Cn1nccc1Nc1nccc(-c2cc3n(c2)C[C@H](CF)n2c-3nnc2C(F)(F)n2cc(Cl)cn2)n1 [Compound 111] | ≤ 5 | > 100 |
